From PubChem BioAssay AID248 (DTP/NCI, 2004)
Where “and” joins values, the source holds several entries; their conditions need not be identical. Equal entries are not always repeated. Toxic doses and inconclusive results are not listed. No stated cut-off is given here; in the data, active means T/C of 150% or more; inactive means T/C below 125%.

System: L1210 leukemia ip in BDF1 mice, survival T/C
Assay: NCI In Vivo Anticancer Drug Screen. Data for tumor model L1210 Leukemia (intraperitoneal) in B6D2F1 (BDF1) mice
Conditions: endpoint: mean survival time, higher = longer survival
Procedure, shortened: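 Mice bearing the transplanted tumor received compound or vehicle. Survival of the treated group was divided by that of the vehicle-treated control group to give the ratio.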

[1] = dose: 100.0 mg/kg/injection, schedule: Q04DX003 (ip), vehicle: Klucel (hydroxypropylcellulose) (HPC)
[2] = dose: 200.0 mg/kg/injection, schedule: Q04DX003 (ip), vehicle: Klucel (hydroxypropylcellulose) (HPC)
[3] = dose: 400.0 mg/kg/injection, schedule: Q04DX003 (ip), vehicle: Klucel (hydroxypropylcellulose) (HPC)
[4] = dose: 100.0 mg/kg/injection, schedule: Q01DX009 (ip), vehicle: Klucel (hydroxypropylcellulose) (HPC)
[5] = dose: 200.0 mg/kg/injection, schedule: Q01DX009 (ip), vehicle: Klucel (hydroxypropylcellulose) (HPC)
[6] = dose: 100.0 mg/kg/injection, schedule: Q04DX003 (ip), vehicle: saline with Tween-80
[7] = dose: 200.0 mg/kg/injection, schedule: Q04DX003 (ip), vehicle: saline with Tween-80
[8] = dose: 400.0 mg/kg/injection, schedule: Q04DX003 (ip), vehicle: saline with Tween-80
[9] = dose: 400.0 mg/kg/injection, schedule: Q01DX009 (ip), vehicle: Klucel (hydroxypropylcellulose) (HPC)
[10] = dose: 100.0 mg/kg/injection, schedule: Q01DX001 (ip), vehicle: saline
[11] = dose: 200.0 mg/kg/injection, schedule: Q01DX001 (ip), vehicle: saline

Measured: T/C

CCCCCCCCCCCCCCCCN(C(C)C)S(=O)(=O)c1ccc(Cl)c([N+](=O)[O-])c1
inactive: dose: 100.0 mg/kg/injection, schedule: Q01DX009 (ip), vehicle: saline sonified 106 % of control | [1] 91 % of control | dose: 200.0 mg/kg/injection, schedule: Q01DX009 (ip), vehicle: saline sonified 96 % of control | [2] 94 % of control | dose: 400.0 mg/kg/injection, schedule: Q01DX009 (ip), vehicle: saline sonified 89 % of control | [3] 93 % of control

CNC(=O)Oc1cccc2c1OC(C)(C)C2
inactive: dose: 1.56 mg/kg/injection, schedule: Q01DX001 (ip), vehicle: Klucel (hydroxypropylcellulose) (HPC) 96 % of control | dose: 3.13 mg/kg/injection, schedule: Q01DX001 (ip), vehicle: Klucel (hydroxypropylcellulose) (HPC) 103 % of control

C=C(Br)CN(CCCC)C(C)=O
inactive: [4] 100 % of control | [1] 103 % of control | [5] 108 % of control | [2] 100 % of control and 92 % of control

CC(N)c1ccccc1Cl (stereo not drawn)
inactive: dose: 12.5 mg/kg/injection, schedule: Q04DX003 (ip), vehicle: saline 107 % of control | dose: 25.0 mg/kg/injection, schedule: Q04DX003 (ip), vehicle: saline 96 % of control | dose: 50.0 mg/kg/injection, schedule: Q04DX003 (ip), vehicle: saline 96 % of control

c1ccc2c(c1)CCC1C3CCCC3OCN21 (stereo not drawn)
inactive: dose: 50.0 mg/kg/injection, schedule: Q04DX002 (ip), vehicle: saline with Tween-80 101 % of control | dose: 100.0 mg/kg/injection, schedule: Q04DX002 (ip), vehicle: saline with Tween-80 101 % of control | dose: 200.0 mg/kg/injection, schedule: Q04DX002 (ip), vehicle: saline with Tween-80 104 % of control

CN1C(=O)CC(NC(=O)OCc2ccccc2)C1=O (stereo not drawn)
inactive: [6] 95 % of control | [7] 103 % of control | [8] 96 % of control

O=C(Nc1ccccc1C(=O)N/N=C/CCc1ccccc1)c1ccccc1Cl
inactive: [4] 101 % of control | [5] 97 % of control | [9] 92 % of control

CC(C)(C)OC(=O)C(=O)C(OC(C)(C)C)C(=O)OC(C)(C)C (stereo not drawn)
inactive: [10] 98 % of control | [11] 102 % of control

c1ccc2c(c1)NC(C1Nc3ccccc3S1)S2 (stereo not drawn)
inactive: dose: 100.0 mg/kg/injection, schedule: Q01DX001 (ip), vehicle: acetone 90 % of control | [1] 93 % of control | dose: 200.0 mg/kg/injection, schedule: Q01DX001 (ip), vehicle: acetone 88 % of control | [2] 93 % of control | dose: 400.0 mg/kg/injection, schedule: Q01DX001 (ip), vehicle: acetone 88 % of control | [3] 90 % of control

O=C1C2C(C(=O)N1c1ccc(Br)cc1)C1(Cl)C(Cl)=C(Cl)C2(Cl)C1(Cl)Cl (stereo not drawn)
inactive: [4] 104 % of control | [1] 101 % of control | [5] 102 % of control | [2] 111 % of control | [9] 96 % of control | [3] 104 % of control

CC(=O)OCc1ccc(-n2c(C(F)(F)F)nc3nc(Cl)c(Cl)nc32)o1
inactive: dose: 50.0 mg/kg/injection, schedule: Q01DX009 (ip), vehicle: saline 97 % of control | dose: 100.0 mg/kg/injection, schedule: Q01DX009 (ip), vehicle: saline 102 % of control | dose: 100.0 mg/kg/injection, schedule: Q04DX003 (ip), vehicle: saline 105 % of control | dose: 200.0 mg/kg/injection, schedule: Q01DX009 (ip), vehicle: saline 96 % of control | dose: 200.0 mg/kg/injection, schedule: Q04DX003 (ip), vehicle: saline 100 % of control | dose: 400.0 mg/kg/injection, schedule: Q01DX009 (ip), vehicle: saline 97 % of control | dose: 400.0 mg/kg/injection, schedule: Q04DX003 (ip), vehicle: saline 88 % of control

CCC(=O)N/N=C(\N)N[N+](=O)[O-]
inactive: dose: 87.5 mg/kg/injection, schedule: Q04DX003 (ip), vehicle: Klucel (hydroxypropylcellulose) (HPC) 102 % of control | dose: 175.0 mg/kg/injection, schedule: Q04DX003 (ip), vehicle: Klucel (hydroxypropylcellulose) (HPC) 105 % of control | dose: 350.0 mg/kg/injection, schedule: Q04DX003 (ip), vehicle: Klucel (hydroxypropylcellulose) (HPC) 103 % of control

O=[N+]([O-])c1ccc(Cl)c(CNc2ncnc3nc[nH]c23)c1
inactive: [6] 92 % of control | [7] 93 % of control | [8] 106 % of control

CCOC(=O)N/N=C/c1cccs1
inactive: [10] 98 % of control | [11] 96 % of control | dose: 400.0 mg/kg/injection, schedule: Q01DX001 (ip), vehicle: saline 98 % of control

COC(=O)C1CCC=C2C1CC1CC2C1(C)C (stereo not drawn)
inactive: [1] 97 % of control | [2] 103 % of control | [3] 95 % of control

O=C1C=CC(=O)N1c1ccc([N+](=O)[O-])cc1
inactive: dose: 0.78 mg/kg/injection, schedule: Q04DX003 (ip), vehicle: Klucel (hydroxypropylcellulose) (HPC) 107 % of control | dose: 1.56 mg/kg/injection, schedule: Q01DX009 (ip), vehicle: Klucel (hydroxypropylcellulose) (HPC) 97 % of control | dose: 1.56 mg/kg/injection, schedule: Q04DX003 (ip), vehicle: Klucel (hydroxypropylcellulose) (HPC) 93 % of control | dose: 3.12 mg/kg/injection, schedule: Q01DX009 (ip), vehicle: Klucel (hydroxypropylcellulose) (HPC) 92 % of control | dose: 3.12 mg/kg/injection, schedule: Q04DX003 (ip), vehicle: Klucel (hydroxypropylcellulose) (HPC) 91 % of control | dose: 6.25 mg/kg/injection, schedule: Q01DX009 (ip), vehicle: Klucel (hydroxypropylcellulose) (HPC) 92 % of control | dose: 6.25 mg/kg/injection, schedule: Q04DX003 (ip), vehicle: Klucel (hydroxypropylcellulose) (HPC) 92 % of control | dose: 9.2 mg/kg/injection, schedule: Q01DX009 (ip), vehicle: Klucel (hydroxypropylcellulose) (HPC) 92 % of control | dose: 14.0 mg/kg/injection, schedule: Q01DX009 (ip), vehicle: Klucel (hydroxypropylcellulose) (HPC) 90 % of control | dose: 21.0 mg/kg/injection, schedule: Q01DX009 (ip), vehicle: Klucel (hydroxypropylcellulose) (HPC) 95 % of control

Cc1cc(NC(=O)Nc2ccc(Cl)cc2C)no1
inactive: dose: 12.5 mg/kg/injection, schedule: Q01DX009 (ip), vehicle: Klucel (hydroxypropylcellulose) (HPC) 102 % of control | dose: 25.0 mg/kg/injection, schedule: Q01DX009 (ip), vehicle: Klucel (hydroxypropylcellulose) (HPC) 97 % of control | dose: 50.0 mg/kg/injection, schedule: Q01DX009 (ip), vehicle: Klucel (hydroxypropylcellulose) (HPC) 91 % of control

Nc1c(Cl)cc2c(c1Br)C(=O)c1ccccc1C2=O
inactive: dose: 100.0 mg/kg/injection, schedule: Q01DX001 (ip), vehicle: Klucel (hydroxypropylcellulose) (HPC) 117 % of control | dose: 400.0 mg/kg/injection, schedule: Q01DX001 (ip), vehicle: Klucel (hydroxypropylcellulose) (HPC) 90 % of control

Cc1c(Cl)cccc1NC(=O)Oc1ccc(Cl)cc1
inactive: dose: 100.0 mg/kg/injection, schedule: Q01DX009 (ip), vehicle: saline with Tween-80 92 % of control | [6] 93 % of control | dose: 200.0 mg/kg/injection, schedule: Q01DX009 (ip), vehicle: saline with Tween-80 87 % of control | [7] 97 % of control | dose: 400.0 mg/kg/injection, schedule: Q01DX009 (ip), vehicle: saline with Tween-80 87 % of control | [8] 102 % of control

CCOC(=O)/C(C(C)=O)=C(/O)c1ccc(OC(F)(F)C(F)Cl)cc1OC(F)(F)C(F)Cl.CCOC(=O)/C(C(C)=O)=C(/O)c1ccc(OC(F)(F)C(F)Cl)cc1OC(F)(F)C(F)Cl.[Cu] (stereo not drawn)
inactive: [4] 88 % of control | [1] 100 % of control | [5] 94 % of control | [2] 101 % of control | [3] 101 % of control
